What was measured:
[1] = tested on: rat erythrocyte (RBC); details: cited from earlier work
[2] = tested on: rat-organ homogenates; details: cited from earlier work
[3] = tested on: rat-organ homogenates; details: cited from earlier work; remark: listed apart in the source
[4] = tested on: Vero cells; assay: Cytotoxicity (CD50) on Vero cells; assay type: cell-based; details: 48 hours of exposure
Description: See Example II for tumor cell cytotoxicity of these compounds. […] NAB group 32 contains two compounds, Tolan-2 (also designated herein as KST-201) and Stil-2. Based on the NAB, they were classified as topological isomers. However, chemically they differ because Stil-2, a […], contained a double bonded linker, while Tolan-2 contained a triple bonded linker. The cytotoxicity of the two molecules on Vero cells differed markedly: Tolan-2 was less toxic than Stil-2.

[5] = tested on: HSV-1; assay: HSV-1 replication in infected Vero cells (plaque assay); assay type: cell-based, Herpes Simplex Virus-Type 1; details: at CD50, 75% and 50% of CD50; 24, 48, 72 h
Description: For this purpose HSV-1 replication at 24, 48 and 72 h was examined in the presence or absence of varying concentrations of the polyphenol.
The SI is the ratio of the CD50 divided by a selected inhibitory concentration (IC %).
Viral inhibition by Tolan-3 appeared to occur after viral entry into cells. […] Subsequently, the compound was removed and replaced with culture medium alone, and the incubated continued for 48 or 72 more hrs. In a second experiment, HSV-1 infected Vero cells were incubated with 350 μM Tolan-3 for 48 h. Thereafter, the Tolan-3 was removed and replaced by medium and the incubation continued for an additional 24 h. Viral titers were calculated by a standard plaque assay.

[6] = tested on: prostate cancer; assay: Prostate cancer patients (Example VIII A); assay type: in vivo, human; details: daily 10 μg to 5 mg/Kg; no significant differences between the four groups
Description: A group of 40 men aged 55-75 suffering from prostate cancer receive a daily dosage of between 10 μg and 5 mg/Kg body weight of KST-201, KST-213, KST-301 or KST-401 (10 patients per compound). Examination of the patients by clinical, radiographic and histopathological tests show significant shrinkage in tumors, and signs of cell death in 38% of the patients; there are no significant differences between the four treatment groups.

[7] = tested on: breast cancer; assay: Breast cancer prevention, skin patch (Example VIII C); assay type: in vivo, human; details: transdermal patch 10 mg to 100 mg daily, one-year study
Description: This study investigates whether KST-201, KST-213, KST-301 and KST-401 administered transdermally each day through a skin patch aid in preventing breast cancer or metastatic cancer following cancer therapy. Patches are prepared with a lipophilic carrier which is readily absorbed through the skin (glycerol cold cream containing glycerin and peanut oil). The HT compound is mixed with the lipophilic cream such that each patch comprises 10 mg to 100 mg of active compound. The patch is applied to the skin each day, and rapid absorption occurs. After two hours, the patch is removed.

[8] = tested on: colon cancer; assay: Colon cancer patients (Example VIII E); assay type: in vivo, human; details: for Dissemination of the tumors: daily bolus injections (intravenous or intramuscular) of 2 g; for Cancer marker carcinoembryonic antigen (CEA) / Progression of the tumor: intravenous infusion 2 g daily for three weeks
Description: Eight patients suffering from advanced colon cancer are treated daily for three weeks with an intravenous infusion of 2 g of the compounds KST-201, KST-213, KST-301 or KST-401 dissolved in saline. Two patients are assigned to each compound. The compounds are dissolved in sterile saline. […] Progression of the tumor is also arrested over the treatment period.
Another eight patients with terminal colon cancer are treated by daily bolus injections (intravenous or intramuscular) of 2 g of KST-201, KST-213, KST-301 or KST-401.

[9] = tested on: ovarian cancer; assay: Ovarian cancer patients (Example VIII D); assay type: in vivo, human; details: daily gelatin capsule 200 mg
Description: A study is carried out in a group of 40 women with ovarian cancer of various grades to determine the effect of treatment with compounds of KST-201, KST-213, KST-301 and KST-401. The administration protocol involves daily administration of a gelatin capsule containing 200 mg of active compound.

[10] = tested on: bladder cancer; assay: Bladder cancer patients (Example VIII B); assay type: in vivo, human; details: intravenous 10 μg to 5 mg/kg over three months; for Patients with significant remission: no differences between compounds
Description: A group of 20 men and 20 women aged 50-75 with bladder cancer are treated by intravenous injection of between 10 μg and 5 mg/kg of KST-201, KST-213, KST-301 or KST-401. Each compound is given to a group of 5 men and 5 women) over a period of three months. Clinical, radiographic and histopathological tests show significant remission in 35% of patients, accompanied by signs of cell death in 45%. There are no significant differences between the results with the four compounds.

[11] = tested on: Mushroom tyrosinase; assay: Inhibition of mushroom tyrosinase activity; assay type: biochemical; details: concentration not given
Description: All chemical used for reagents were purchased from Sigma Chemical Company. KST201 at each tested concentration (1000, 250 and 100 μM) was dissolved in 10% ethanol from a master mixture of the drug prepared at 0.1M in 100% ethanol.
Mushroom tyrosinase (Sigma) was diluted in 50 mM phosphate buffer, pH 6.5 to yield a concentration of 16 U/μl. […] A master mix containing 0.5 mM L-DOPA [3,4-dihydroxy-1-phenylalanine], 10 mM Sodium L-tyrosine in 50 mM phosphate buffer, pH 6.5 was prepared. The KST-201 dilutions were preincubated with the enzyme for 20 minutes. The samples were pipetted into 24 well plates and the master mixture added quickly. The reaction was read using a kinetic format in which wells were read every 30 seconds over a course of 10 minutes at a wavelength of 475 nm using a Synergy HT Plate reader. A kinetic curve was generated for each sample compared to a total reaction with mushroom tyrosinase without a drug (total).

SMILES	Inhibition (%) of RBC hemolysis induced by H2O2 at 4 μM [1]	Inhibition (%) of Fe2+ − VitC induced level of MDA at 15 μM, In rat brain [2]	Inhibition (%) of Fe2+ − VitC induced level of MDA at 15 μM, In rat kidney [2]	Inhibition (%) of Fe2+ − VitC induced level of MDA at 15 μM, In rat liver [2]	Inhibition (%) of autooxidation MDA level at 7.5 μM, In rat brain [3]	Inhibition (%) of autooxidation MDA level at 7.5 μM, In rat kidney [3]	Inhibition (%) of autooxidation MDA level at 7.5 μM, In rat liver [3]	CD50 [4]	Log CD50 [4]	further results
Oc1ccc(/C=C/c2ccc(O)cc2)cc1 [trans-4,4′-Dihydroxystilbene]	67.17%	90.66%	85.23%	68.37%	85.31%	62.11%	89.23%			
Oc1ccc(/C=C/c2ccccc2)cc1 [Stil-1]								131 µM	2.12	
Oc1ccc(/C=C/c2ccccc2)cc1 [trans-4-Hydroxystilbene]	-5.14%	43.36%	29.23%	32.85%	6.64%	19.88%	−2.31%			
Oc1ccc(/C=C/c2ccccc2)c(O)c1 [trans-2,4-Dihydroxystilbene]	43.72%	55.19%	39.08%	42.58%	30.07%	32.27%	42.31%			
Oc1cc(O)cc(/C=C/c2ccccc2)c1 [trans-3,5-Dihydroxystilbene]	19.97%	12.24%	0.62%	24.82%	−5.24%	14.91%	−5.38%			
Oc1cc(O)cc(/C=C/c2cc(O)cc(O)c2)c1 [Stil-4, tetrahydroxystilbene]								>200 µM	2.30	
Oc1ccc(C#Cc2ccc(C(F)(F)F)cc2)cc1 [KST-213, 4-hydroxy-4′-trifluoromethyltolan]								48.2 µM	1.68	Effect on HSV-1 viral replication in Vero cells (in words) [5]: substantially inhibited; Patients with significant shrinkage in tumors, and signs of cell death [6]: 38%; Breast cancer or metastatic cancer in high-risk group [7]: does not show any evidence of breast cancer or other metastatic cancer; Dissemination of the tumors [8]: dissemination of the tumors is diminished; Cancer marker carcinoembryonic antigen (CEA) [8]: significant reduction; Progression of the tumor [8]: arrested; Rate of production of ovarian cancer markers (Muc-1, Sp17) [9]: significant decrease; Tumor growth during study period [9]: Tumors regress or show no further growth; Patients with signs of cell death [10]: 45%; Patients with significant remission [10]: 35%
Oc1ccc(/C=C/c2ccc(O)cc2O)cc1 [trans-2,4,4′-Trihydroxystilbene]	81.85%	94.40%	87.69%	92.46%	90.91%	66.46%	93.85%			
Oc1ccc(/C=C/c2ccccc2)cc1O [trans-3,4-Dihydroxystilbene]	97.58%	96.68%	89.23%	99.27%						
Oc1ccc(/C=C/c2ccc(O)cc2)cc1 [Stil-2]								53.3 µM	1.73	Effect on HSV-1 viral replication in Vero cells (in words) [5]: no substantial reduction in viral replication
Oc1cc(O)cc(C#Cc2cc(O)cc(O)c2)c1 [KST-401, 3,3′,5,5′-tetrahydroxytolan]								103 µM	2.01	Effect on HSV-1 viral replication in Vero cells (in words) [5]: substantial viral inhibition; % inhibition of mushroom tyrosinase activity [11]: 22.7±6.5%; Patients with significant shrinkage in tumors, and signs of cell death [6]: 38%; Breast cancer or metastatic cancer in high-risk group [7]: does not show any evidence of breast cancer or other metastatic cancer; Dissemination of the tumors [8]: dissemination of the tumors is diminished; Cancer marker carcinoembryonic antigen (CEA) [8]: significant reduction; Progression of the tumor [8]: arrested; Rate of production of ovarian cancer markers (Muc-1, Sp17) [9]: significant decrease; Tumor growth during study period [9]: Tumors regress or show no further growth; Patients with signs of cell death [10]: 45%; Patients with significant remission [10]: 35%

From patent publication US8716355B2, “Hydroxylated tolans and related compounds in the treatment of a cancer” (Kent State University, priority 2007, dated 2014)
